# Reference: ChEMBL document CHEMBL1201861, “Genomics of Drug Sensitity in Cancer screening data, Wellcome Trust Sanger Institute”
# What was measured:
# COLO-792 = test: cells; type: functional, cell-based, Homo sapiens
# Description: SANGER: Inhibition of human COLO-792 cell growth in a cell viability assay.
# DK-MG = test: cells; type: functional, cell-based, Homo sapiens;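 further: growth inhibition of DK-MG cells, read out with a cell viability assay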
# Description: SANGER: Inhibition of human DK-MG cell growth in a cell viability assay.
# DMS-273 = test: cells; type: functional, cell-based, Homo sapiens
# Description: SANGER: Inhibition of human DMS-273 cell growth in a cell viability assay.
# DU-145 = test: cells; type: functional, cell-based, Homo sapiens
# Description: SANGER: Inhibition of human DU-145 cell growth in a cell viability assay.
# DoTc2-4510 = test: cells; type: functional, cell-based, Homo sapiens
# EFO-27 = test: cells; type: functional, cell-based, Homo sapiens;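 further: growth inhibition of EFO-27 cells, read out with a cell viability assay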
# Description: SANGER: Inhibition of human EFO-27 cell growth in a cell viability assay.
# FaDu = test: cells; type: functional, cell-based, Homo sapiens;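 further: cell viability readout of growth inhibition in FaDu cells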
# Description: SANGER: Inhibition of human FADU cell growth in a cell viability assay.
# G-361 = test: cells; type: functional, cell-based, Homo sapiens
# G-402 = test: cells; type: functional, cell-based, Homo sapiens
# Description: SANGER: Inhibition of human G-402 cell growth in a cell viability assay.
# HCC38 = test: cells; type: functional, cell-based, Homo sapiens;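 further: cell viability assay on the human HCC38 cell line, with IC50 marking the concentration that inhibits cell growth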
# Description: SANGER: Inhibition of human HCC38 cell growth in a cell viability assay.
# HCC70 = test: cells; type: functional, cell-based, Homo sapiens;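 further: cell viability assay measuring how strongly the compound suppresses proliferation of HCC70 cells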
# Description: SANGER: Inhibition of human HCC70 cell growth in a cell viability assay.
# HEC-1 = test: cells; type: functional, cell-based, Homo sapiens;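 further: growth inhibition of the cell line, read out with a cell viability assay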
# Description: SANGER: Inhibition of human HEC-1 cell growth in a cell viability assay.
# HOS = test: cells; type: functional, cell-based, Homo sapiens;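 further: growth inhibition of human HOS cells, read out with a cell viability assay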
# Description: SANGER: Inhibition of human HOS cell growth in a cell viability assay.
# IST-SL2 = test: cells; type: functional, cell-based, Homo sapiens;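 further: growth inhibition of human IST-SL2 cells, read out by a cell viability assay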
# Description: SANGER: Inhibition of human IST-SL2 cell growth in a cell viability assay.
# KYSE-450 = test: cells; type: functional, cell-based, Homo sapiens;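 further: cell growth inhibition measured by a viability assay in human KYSE-450 cells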
# Description: SANGER: Inhibition of human KYSE-450 cell growth in a cell viability assay.
# LCLC-97TM1 = test: cells; type: functional, cell-based, Homo sapiens;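 further: cell viability assay measuring growth inhibition of human LCLC-97TM1 cells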
# Description: SANGER: Inhibition of human LCLC-97TM1 cell growth in a cell viability assay.
# MC-CAR = test: cells; type: functional, cell-based, Homo sapiens;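 further: growth inhibition of the human MC-CAR cell line, read out by a cell viability assay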
# Description: SANGER: Inhibition of human MC-CAR cell growth in a cell viability assay.
# MDA-MB-231 = test: cells; type: functional, cell-based, Homo sapiens
# Description: SANGER: Inhibition of human MDA-MB-231 cell growth in a cell viability assay.
# MDA-MB-415 = test: cells; type: functional, cell-based, Homo sapiens
# MDA-MB-453 = test: cells; type: functional, cell-based, Homo sapiens
# Description: SANGER: Inhibition of human MDA-MB-453 cell growth in a cell viability assay.
# MFE-280 = test: cells; type: functional, cell-based, Homo sapiens;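 further: growth inhibition of MFE-280 cells, determined with a cell viability readout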
# Description: SANGER: Inhibition of human MFE-280 cell growth in a cell viability assay.
# NB1 = test: cells; type: functional, cell-based, Homo sapiens;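 further: reduction of NB1 cell proliferation, read out with a viability assay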
# Description: SANGER: Inhibition of human NB1 cell growth in a cell viability assay.
# NCCIT = test: SANGER: Inhibition of human NCCIT cell growth in a cell viability assay.; type: functional, cell-based
# NCI-H1755 = test: cells; type: functional, cell-based, Homo sapiens;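 further: cell viability readout used to measure growth inhibition of NCI-H1755 cells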
# Description: SANGER: Inhibition of human NCI-H1755 cell growth in a cell viability assay.
# NCI-H2170 = test: cells; type: functional, cell-based, Homo sapiens;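 further: cell viability assay measuring growth inhibition of human NCI-H2170 cancer cells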
# Description: SANGER: Inhibition of human NCI-H2170 cell growth in a cell viability assay.
# NCI-H358 = test: cells; type: functional, cell-based, Homo sapiens;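 further: growth inhibition of NCI-H358 human cells, read out with a cell viability assay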
# Description: SANGER: Inhibition of human NCI-H358 cell growth in a cell viability assay.
# NCI-H520 = test: cells; type: functional, cell-based, Homo sapiens;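 further: growth inhibition of NCI-H520 cells, measured by a cell viability assay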
# Description: SANGER: Inhibition of human NCI-H520 cell growth in a cell viability assay.
# NCI-H596 = test: cells; type: functional, cell-based, Homo sapiens;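 further: growth inhibition of NCI-H596 cells, read out with a cell viability assay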
# Description: SANGER: Inhibition of human NCI-H596 cell growth in a cell viability assay.
# NCI-H661 = test: cells; type: functional, cell-based, Homo sapiens;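 further: cell viability assay read-out, IC50 being the concentration that inhibits growth of the cells by half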
# Description: SANGER: Inhibition of human NCI-H661 cell growth in a cell viability assay.
# NCI-H889 = test: cells; type: functional, cell-based, Homo sapiens;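 further: cell growth inhibition of the cell line, read out with a viability assay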
# Description: SANGER: Inhibition of human NCI-H889 cell growth in a cell viability assay.
# SNU-16 = test: cells; type: functional, cell-based, Homo sapiens;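 further: growth inhibition of human SNU-16 cells, determined with a cell viability readout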
# Description: SANGER: Inhibition of human NCI-SNU-16 cell growth in a cell viability assay.
# OVCAR-3 = test: cells; type: functional, cell-based, Homo sapiens;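 further: growth inhibition of human OVCAR-3 cells, determined by a cell viability assay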
# Description: SANGER: Inhibition of human OVCAR-3 cell growth in a cell viability assay.
# P12-Ichikawa = test: cells; type: functional, cell-based, Homo sapiens
# RO82-W-1 = test: cells; type: functional, cell-based, Homo sapiens;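 further: growth inhibition of human RO82-W-1 cells, measured with a cell viability assay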
# Description: SANGER: Inhibition of human RO82-W-1 cell growth in a cell viability assay.
# SCC-4 = test: cells; type: functional, cell-based, Homo sapiens;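 further: growth inhibition of human SCC-4 cells, read out as cell viability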
# Description: SANGER: Inhibition of human SCC-4 cell growth in a cell viability assay.
# SNU-C1 = test: cells; type: functional, cell-based, Homo sapiens;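 further: growth inhibition of SNU-C1 human cells, read out by a cell viability assay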
# Description: SANGER: Inhibition of human SNU-C1 cell growth in a cell viability assay.
# A-431 = test: cells; type: functional, cell-based, Homo sapiens;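 further: growth inhibition of A-431 cells, determined with a cell viability read-out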
# Description: SANGER: Inhibition of human A431 cell growth in a cell viability assay.
# CAL-27 = test: cells; type: functional, cell-based, Homo sapiens;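 further: Viability-based readout, IC50 reflecting inhibition of CAL-27 cell growth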
# Description: SANGER: Inhibition of human CAL-27 cell growth in a cell viability assay.
# THP-1 = test: cells; type: functional, cell-based, Homo sapiens;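 further: growth inhibition of THP-1 cells, read out via a cell viability assay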
# Description: SANGER: Inhibition of human THP-1 cell growth in a cell viability assay.
# TUR = test: cells; type: functional, cell-based, Homo sapiens;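 further: growth inhibition of human TUR cells, read out with a cell viability assay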
# Description: SANGER: Inhibition of human TUR cell growth in a cell viability assay.
# U-698-M = test: cells; type: functional, cell-based, Homo sapiens
# Description: SANGER: Inhibition of human U-698-M cell growth in a cell viability assay.
# YAPC = test: cells; type: functional, cell-based, Homo sapiens;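 further: growth inhibition of YAPC cells, measured with a cell viability assay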
# Description: SANGER: Inhibition of human YAPC cell growth in a cell viability assay.
# CAMA-1 = test: cells; type: functional, cell-based, Homo sapiens;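 further: growth inhibition of CAMA-1 cells, read out with a cell viability assay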
# Description: SANGER: Inhibition of human CAMA-1 cell growth in a cell viability assay.
# CESS = test: SANGER: Inhibition of human CESS cell growth in a cell viability assay.; type: functional, cell-based
# CHL-1 = test: cells; type: functional, cell-based, Homo sapiens;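 further: cell growth inhibition, read out with a cell viability assay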
# Description: SANGER: Inhibition of human CHL-1 cell growth in a cell viability assay.
# COLO-680N = test: cells; type: functional, cell-based, Homo sapiens;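 further: cell viability assay used to measure inhibition of COLO-680N cell growth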
# Description: SANGER: Inhibition of human COLO-680N cell growth in a cell viability assay.
compound,measurement,setting,value
CCC/C=C/C=C/C(=O)O[C@H]1/C(=C/C(=O)OC)C[C@H]2C[C@H]([C@@H](C)O)OC(=O)C[C@H](O)C[C@@H]3C[C@H](OC(C)=O)C(C)(C)[C@](O)(C[C@@H]4C/C(=C/C(=O)OC)C[C@H](/C=C/C(C)(C)[C@]1(O)O2)O4)O3 [BRYOSTATIN 1],IC50,"COLO-792; Homo sapiens, COLO-792",> 0.008 µM
same,IC50,"DK-MG; Homo sapiens, DK-MG",> 0.008 µM
same,IC50,"DMS-273; Homo sapiens, DMS-273",> 0.008 µM
same,IC50,"DU-145; Homo sapiens, DU-145",> 0.008 µM
same,IC50,"DoTc2-4510; Homo sapiens, DoTc2-4510",> 0.008 µM
same,IC50,"EFO-27; Homo sapiens, EFO-27",> 0.008 µM
same,IC50,"FaDu; Homo sapiens, FaDu",> 0.008 µM
same,IC50,"G-361; Homo sapiens, G-361",> 0.008 µM
same,IC50,"G-402; Homo sapiens, G-402",> 0.008 µM
same,IC50,"HCC38; Homo sapiens, HCC38",> 0.008 µM
same,IC50,"HCC70; Homo sapiens, HCC70",> 0.008 µM
same,IC50,"HEC-1; Homo sapiens, HEC-1",> 0.008 µM
same,IC50,"HOS; Homo sapiens, HOS",> 0.008 µM
same,IC50,"IST-SL2; Homo sapiens, IST-SL2",> 0.008 µM
same,IC50,"KYSE-450; Homo sapiens, KYSE-450",> 0.008 µM
same,IC50,"LCLC-97TM1; Homo sapiens, LCLC-97TM1",> 0.008 µM
same,IC50,"MC-CAR; Homo sapiens, MC-CAR",> 0.008 µM
same,IC50,"MDA-MB-231; Homo sapiens, MDA-MB-231",> 0.008 µM
same,IC50,"MDA-MB-415; Homo sapiens, MDA-MB-415",> 0.008 µM
same,IC50,"MDA-MB-453; Homo sapiens, MDA-MB-453",> 0.008 µM
same,IC50,"MFE-280; Homo sapiens, MFE-280",> 0.008 µM
same,IC50,"NB1; Homo sapiens, NB1",> 0.008 µM
same,IC50,"NCCIT; Homo sapiens, NCCIT",> 0.008 µM
same,IC50,"NCI-H1755; Homo sapiens, NCI-H1755",> 0.008 µM
same,IC50,"NCI-H2170; Homo sapiens, NCI-H2170",> 0.008 µM
same,IC50,"NCI-H358; Homo sapiens, NCI-H358",> 0.008 µM
same,IC50,"NCI-H520; Homo sapiens, NCI-H520",> 0.008 µM
same,IC50,"NCI-H596; Homo sapiens, NCI-H596",> 0.008 µM
same,IC50,"NCI-H661; Homo sapiens, NCI-H661",> 0.008 µM
same,IC50,"NCI-H889; Homo sapiens, NCI-H889",> 0.008 µM
same,IC50,"SNU-16; Homo sapiens, SNU-16",> 0.008 µM
same,IC50,"OVCAR-3; Homo sapiens, OVCAR-3",> 0.008 µM
same,IC50,"P12-Ichikawa; Homo sapiens, P12-Ichikawa",> 0.008 µM
same,IC50,"RO82-W-1; Homo sapiens, RO82-W-1",> 0.008 µM
same,IC50,"SCC-4; Homo sapiens, SCC-4",> 0.008 µM
same,IC50,"SNU-C1; Homo sapiens, SNU-C1",> 0.008 µM
same,IC50,"A-431; Homo sapiens, A-431",> 0.008 µM
same,IC50,"CAL-27; Homo sapiens, CAL-27",> 0.008 µM
same,IC50,"THP-1; Homo sapiens, THP-1",> 0.008 µM
same,IC50,"TUR; Homo sapiens, TUR",> 0.008 µM
same,IC50,"U-698-M; Homo sapiens, U-698-M",> 0.008 µM
same,IC50,"YAPC; Homo sapiens, YAPC",> 0.008 µM
same,IC50,"CAMA-1; Homo sapiens, CAMA-1",> 0.008 µM
same,IC50,"CESS; Homo sapiens, CESS",> 0.008 µM
same,IC50,"CHL-1; Homo sapiens, CHL-1",> 0.008 µM
same,IC50,"COLO-680N; Homo sapiens, COLO-680N",> 0.008 µM
Cc1cc([N+](=O)[O-])ccc1NS(=O)(=O)c1cc(Cl)ccc1Cl,IC50,"COLO-792; Homo sapiens, COLO-792",2.01 µM
same,IC50,"DK-MG; Homo sapiens, DK-MG",12.3 µM
same,IC50,"DMS-273; Homo sapiens, DMS-273",0.719 µM
same,IC50,"DU-145; Homo sapiens, DU-145",4.69 µM
same,IC50,"DoTc2-4510; Homo sapiens, DoTc2-4510",1.52 µM
same,IC50,"EFO-27; Homo sapiens, EFO-27",4.83 µM
same,IC50,"FaDu; Homo sapiens, FaDu",4.28 µM
same,IC50,"G-361; Homo sapiens, G-361",1.77 µM
same,IC50,"G-402; Homo sapiens, G-402",4.65 µM
same,IC50,"HCC38; Homo sapiens, HCC38",7.96 µM
same,IC50,"HCC70; Homo sapiens, HCC70",6.62 µM
same,IC50,"HEC-1; Homo sapiens, HEC-1",8.24 µM
same,IC50,"HOS; Homo sapiens, HOS",2.53 µM
same,IC50,"IST-SL2; Homo sapiens, IST-SL2",8.24 µM
same,IC50,"KYSE-450; Homo sapiens, KYSE-450",6.37 µM
same,IC50,"LCLC-97TM1; Homo sapiens, LCLC-97TM1",3.18 µM
same,IC50,"MC-CAR; Homo sapiens, MC-CAR",8.99 µM
same,IC50,"MDA-MB-231; Homo sapiens, MDA-MB-231",14.3 µM
same,IC50,"MDA-MB-415; Homo sapiens, MDA-MB-415",4.7 µM
same,IC50,"MDA-MB-453; Homo sapiens, MDA-MB-453",10.8 µM
same,IC50,"MFE-280; Homo sapiens, MFE-280",2.77 µM
same,IC50,"NB1; Homo sapiens, NB1",8.38 µM
same,IC50,"NCCIT; Homo sapiens, NCCIT",13.4 µM
same,IC50,"NCI-H1755; Homo sapiens, NCI-H1755",15.8 µM
same,IC50,"NCI-H2170; Homo sapiens, NCI-H2170",1.44 µM
same,IC50,"NCI-H358; Homo sapiens, NCI-H358",6.31 µM
same,IC50,"NCI-H520; Homo sapiens, NCI-H520",6.2 µM
same,IC50,"NCI-H596; Homo sapiens, NCI-H596",7.95 µM
same,IC50,"NCI-H661; Homo sapiens, NCI-H661",2.82 µM
same,IC50,"NCI-H889; Homo sapiens, NCI-H889",> 32 µM
same,IC50,"SNU-16; Homo sapiens, SNU-16",> 32 µM
same,IC50,"OVCAR-3; Homo sapiens, OVCAR-3",5.81 µM
same,IC50,"P12-Ichikawa; Homo sapiens, P12-Ichikawa",13.8 µM
same,IC50,"RO82-W-1; Homo sapiens, RO82-W-1",> 32 µM
same,IC50,"SCC-4; Homo sapiens, SCC-4",13.8 µM
same,IC50,"SNU-C1; Homo sapiens, SNU-C1",> 32 µM
same,IC50,"A-431; Homo sapiens, A-431",2.09 µM
same,IC50,"CAL-27; Homo sapiens, CAL-27",3.16 µM
same,IC50,"THP-1; Homo sapiens, THP-1",19.6 µM
same,IC50,"TUR; Homo sapiens, TUR",9.58 µM
same,IC50,"U-698-M; Homo sapiens, U-698-M",1.81 µM
same,IC50,"YAPC; Homo sapiens, YAPC",> 32 µM
same,IC50,"CAMA-1; Homo sapiens, CAMA-1",0.911 µM
same,IC50,"CESS; Homo sapiens, CESS",> 32 µM
same,IC50,"CHL-1; Homo sapiens, CHL-1",2.18 µM
same,IC50,"COLO-680N; Homo sapiens, COLO-680N",12.5 µM
BLEOMYCIN,IC50,COLO-792; colo-792,26.4 µM
same,IC50,DK-MG; dk-mg,85.8 µM
same,IC50,DMS-273; dms-273,2.98 µM
same,IC50,DU-145; du-145,0.823 µM
same,IC50,DoTc2-4510; dotc2-4510,0.378 µM
same,IC50,EFO-27; efo-27,0.571 µM
same,IC50,FaDu; fadu,5.14 µM
same,IC50,G-361; g-361,0.0883 µM
same,IC50,G-402; g-402,0.0765 µM
same,IC50,HCC38; hcc38,0.0312 µM
same,IC50,HCC70; hcc70,126 µM
same,IC50,HEC-1; hec-1,27.4 µM
same,IC50,HOS; hos,0.56 µM
same,IC50,IST-SL2; ist-sl2,0.000173 µM
same,IC50,KYSE-450; kyse-450,1.93 µM
same,IC50,LCLC-97TM1; lclc-97tm1,1.5 µM
same,IC50,MC-CAR; mc-car,1.4 µM
same,IC50,MDA-MB-231; mda-mb-231,0.273 µM
same,IC50,MDA-MB-415; mda-mb-415,67.3 µM
same,IC50,MDA-MB-453; mda-mb-453,15.4 µM
same,IC50,MFE-280; mfe-280,359 µM
same,IC50,NB1; nb1,11.6 µM
same,IC50,NCCIT; nccit,1.07 µM
same,IC50,NCI-H1755; nci-h1755,26 µM
same,IC50,NCI-H2170; nci-h2170,0.162 µM
same,IC50,NCI-H358; nci-h358,0.373 µM
same,IC50,NCI-H520; nci-h520,16.1 µM
same,IC50,NCI-H596; nci-h596,13.6 µM
same,IC50,NCI-H661; nci-h661,2.79 µM
same,IC50,NCI-H889; nci-h889,513 µM
same,IC50,SNU-16; snu-16,16100 µM
same,IC50,OVCAR-3; ovcar-3,123 µM
same,IC50,P12-Ichikawa; p12-ichikawa,5.55 µM
same,IC50,RO82-W-1; ro82-w-1,339 µM
same,IC50,SCC-4; scc-4,2.43 µM
same,IC50,SNU-C1; snu-c1,82 µM
same,IC50,A-431; a-431,2.11 µM
same,IC50,CAL-27; cal-27,8.07 µM
same,IC50,THP-1; thp-1,92.5 µM
same,IC50,TUR; tur,18.9 µM
same,IC50,U-698-M; u-698-m,13 µM
same,IC50,YAPC; yapc,4190 µM
same,IC50,CAMA-1; cama-1,17.5 µM
same,IC50,CESS; cess,0.000546 µM
same,IC50,CHL-1; chl-1,0.732 µM
same,IC50,COLO-680N; colo-680n,5.76 µM
